Patent US20220218714A1, “METHOD OF TREATING CANCER” (Epizyme, Inc., priority 2013, published 2022)

Legend:
HS-SY-II cells [1] = experiment: Gene expression changes in vitro (RT-PCR, normalized to GAPDH); format: cell-based, human; details: HS-SY-II in vitro culture
Method: ATF3, EGR1, CDKN2A and GAPDH expression were analyzed by using the TaqMan Gene Expression Assays (Life technologies, 4331182) and the TaqMan Probes (Hs00231069_ml, Hs00152928_ml, Hs00233365_ml, and Hs99999905_ml, respectively).

SW982 cells [2] = details: SW982 in vitro culture
HS-SY-II cells [3] = experiment: Adherent cell line 14-day long-term proliferation assay (CellTiter-Glo); format: cell-based, human
Method: (§1) 96-well plating for 7 day assay: For each adherent cell line, plated cells in a volume of 100 μL in 96-well plates, to be treated in triplicate, either in the evening (to treat with compound the following day) or in morning (to treat with compound in the evening), to allow cells to attach to plates before compound treatment.
(§2) 6-well plates to be split for 7-14 day assay: Plated 2mL of cells at the correct density in each well of the 6-well plate. Calculated the correct density from the 96-well plate growth curve by multiplying the 96-well density by 30. The factor 30 came from growth area of the 6-well plate divided by the growth area of the 96-well plate (9.5cm^2/0.32cm^2=29.7, rounded up to 30), which corresponds to 30-fold more surface area in a 6-well vs. a 96-well plate.
(§3) Day 0: Treated with compound or DMSO by removing media and adding back either […] (for 96-well plate) or 2 mL (for 6-well plate) media with the correct dilutions of compound/DMSO. Table 1 includes an example of 96-well plate map. Plates were incubated for 96 hours.
(§4) Read one 96-well plate with CellTiter-Glo®, for a Day 0 reading (media change not necessary for this plate).
(§5) Day 4: Read one 96-well plate with CellTiter-Glo® for a Day 4 reading (media change not necessary for this plate before reading). Replaced media with fresh media containing compound on Day 4 in 96-well plates and 6-well plates.
(§6) Day 7: read final 96-well plate with CellTiter-Glo®.
(§7) Counted individual wells of 6-well plates, and replated cells to initial plating density in 96-well plates, as described above.
(§8) Repeated steps for Days 0-7 for Days 7-14 of the proliferation assay.
(§9) Particularly, approximately 12 hours before compound treatment, HS-SY-II or SW982 cells were plated at the density of 24,000 cells/well and 7,500 cells/well, respectively in 6-well plates. On day 0, cells were treated with either DMSO or compound starting at 10 μmol/L and decreasing in fourfold dilutions. On day 7, the cells in 6-well plates were trypsinized, counted by TC10 automated cell counter (Bio-Rad, Richmond, Calif.) and replated at the density of 800 cells/well and 250 cells/well for HS-SY-II and SW982, respectively in 96-well plates in triplicate. The cells were allowed to adhere to the plate overnight, and treated with either DMSO or compound as on Day 0. On days 0, 7, 11, and 14, cell viability was determined by CellTiter-Glo® Luminescent Cell Viability Assay (Promega) with EnVision 2103 Multilabel Reader (Perkin-Elmer, Wellesley, Mass.). Compound/media was changed with new one on Day 4 and 11. The ratios of the measured values on Days 7, 11, and 14 to that of day 7 were used to plot proliferation from day 7 to day 14, and to calculate the IC50 values on Day 14. […]

SW982 cells [4] = experiment: as above; format: cell-based, human
Method: as §1, §2, §3, §4, §5, §6, §7, §8, §9

CCN(c1cc(-c2ccc(CN3CCOCC3)cc2)cc(C(=O)NCc2c(C)cc(C)[nH]c2=O)c1C)[C@H]1CC[C@H](N(C)C)CC1 [Compound C]
ATF3 and EGR1 expression (HS-SY-II cells [1]): upregulated | CDKN2A expression (HS-SY-II cells [1]): Dose- and time-dependent CDKN2A upregulation | ATF3 and EGR1 expression (SW982 cells [2]): not in SW982

CCN(c1cc(-c2ccc(CN3CCOCC3)cc2)cc(C(=O)NCc2c(C)cc(C)[nH]c2=O)c1C)[C@H]1CC[C@H](N(C)C)CC1 [Compound E]
sensitivity (cell proliferation / viability) (HS-SY-II cells [3]): high sensitivity | sensitivity (cell proliferation / viability) (SW982 cells [4]): did not
